From US10011573B2, “Human androgen receptor DNA-binding domain (DBD) compounds as therapeutics and methods for their use” (The University of British Columbia, priority 2014, dated 2018)
Where two headings read alike, the source gives them in different places.

Assays:
[1] = biological target: T1, androgen receptor (AR) (Homo sapiens, UniProt P10275, T878A); test: eGFP cellular AR transcription assay (LNCaP eGFP cells, LN-ARR2PB-eGFP); conditions: for inhibition at 3 µM: LNCaP, read-out: % Inhibition (3 μM)
T1 sequence (P10275 1-920 T878A): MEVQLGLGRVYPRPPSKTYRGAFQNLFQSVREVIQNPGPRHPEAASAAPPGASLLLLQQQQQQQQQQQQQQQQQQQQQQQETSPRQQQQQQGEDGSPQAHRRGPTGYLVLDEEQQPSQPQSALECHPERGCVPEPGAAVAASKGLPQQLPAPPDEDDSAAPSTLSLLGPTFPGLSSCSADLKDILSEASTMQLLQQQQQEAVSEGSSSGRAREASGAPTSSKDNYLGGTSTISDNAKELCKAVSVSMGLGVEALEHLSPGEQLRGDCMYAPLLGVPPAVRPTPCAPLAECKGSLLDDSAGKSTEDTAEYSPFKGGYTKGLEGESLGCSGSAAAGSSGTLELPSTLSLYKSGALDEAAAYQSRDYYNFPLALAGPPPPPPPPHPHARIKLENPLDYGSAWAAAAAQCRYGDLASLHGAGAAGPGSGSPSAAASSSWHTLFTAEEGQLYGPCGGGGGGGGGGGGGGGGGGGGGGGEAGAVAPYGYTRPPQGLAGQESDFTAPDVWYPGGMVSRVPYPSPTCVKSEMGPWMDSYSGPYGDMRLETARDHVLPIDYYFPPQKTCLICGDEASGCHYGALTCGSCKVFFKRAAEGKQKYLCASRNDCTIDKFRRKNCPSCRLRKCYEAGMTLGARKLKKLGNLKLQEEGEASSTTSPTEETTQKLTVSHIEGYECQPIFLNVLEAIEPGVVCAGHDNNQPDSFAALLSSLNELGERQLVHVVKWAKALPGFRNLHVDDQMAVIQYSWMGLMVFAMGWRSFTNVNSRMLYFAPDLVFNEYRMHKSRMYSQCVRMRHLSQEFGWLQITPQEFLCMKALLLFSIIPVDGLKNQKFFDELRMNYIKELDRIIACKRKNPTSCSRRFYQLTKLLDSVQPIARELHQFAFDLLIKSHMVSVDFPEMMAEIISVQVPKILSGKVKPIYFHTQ

[2] = tested on: PSA; test: Prostate-specific antigen (PSA) assay, secreted PSA from the eGFP assay plates; type: cell-based, human
Experimental: 3. Prostate-specific antigen (PSA) assay: The evaluation of PSA levels secreted into the media was performed in parallel to the eGFP assay using the same plates. After cells were incubated for 3 days, 150 μl of the media was taken from each well, and added to 150 μl of PBS.

[3] = eGFP IC50 (μM), LNCaP eGFP cells

inhibition at 3 µM [1]	IC50 [1, 3]	SMILES	% Inhibition (3 μM) [1]	other results
111%	–	N#Cc1ccc(-c2ccc(N3CCOCC3)s2)cc1 [Compound 14117]	–	IC50 ([1]; eGFP IC50 (μM), Series 1): 1.43 µM; IC50 ([2]; Homo sapiens, Series 1): 0.885 µM
86%	0.36 µM	Fc1ccc2sc(N3CCOCC3)nc2c1F [Compound 14409]	–	IC50 ([2]; Homo sapiens, secreted PSA): 0.34 µM
97.4%	–	Oc1c(F)cccc1-c1csc(N2CCOCC2)n1 [Compound 14365]	–	IC50 ([1]; eGFP IC50 (μM), Series 1): 0.27 µM; IC50 ([2]; Homo sapiens, Series 1): 0.16 µM
80.2%	2.6 µM	c1ccc(-c2ccc3ccccc3n2)cc1 [Compound 14390]	–	IC50 ([2]; Homo sapiens, secreted PSA): 1.23 µM
62%	4.2 µM	c1ccc2nc(-c3ccncc3)ccc2c1 [Compound 14320]	–	IC50 ([2]; Homo sapiens, secreted PSA): 2.26 µM
57.5%	7.41 µM	Oc1ccc2nc(N3CCOCC3)sc2c1 [Compound 14378]	–	IC50 ([2]; Homo sapiens, secreted PSA): 8.08 µM
–	–	Fc1ccc(F)c(-c2csc(N3CCOCC3)n2)c1 [Compound 14262]	96.6%	IC50 ([2]; Series 1): 10.5 µM
–	–	O=C(O)c1sc(N2CCOCC2)nc1-c1ccccc1 [Compound 14506]	–	IC50 ([1]; read-out: eGFP IC50): 7 µM; IC50 ([2]; Series 1): 4.5 µM
98.9%	–	Oc1c(-c2csc(N3CCOCC3)n2)ccc(F)c1F [Compound 14371]	–	IC50 ([1]; eGFP IC50 (μM), Series 1): 0.8 µM; IC50 ([2]; Homo sapiens, Series 1): 0.7 µM
–	1.3 µM	c1ccc2cc(-c3cscn3)ccc2c1 [Compound 14193]	–	IC50 ([2]; Homo sapiens, secreted PSA): 0.64 µM
–	0.23 µM	Oc1cccc(-c2ccc3ccccc3n2)c1 [Compound 14300]	–	IC50 ([2]; Homo sapiens, secreted PSA): 1.04 µM
103%	0.54 µM	N#Cc1cc(N2CCOCC2)nc2ccccc12 [Compound 14395]	–	IC50 ([2]; Homo sapiens, secreted PSA): 0.54 µM
–	32.5 µM	CC(=O)Nc1cccc(NC(=O)c2ccc(C)c(-n3cccc3)c2)c1 [Compound 14010]	–	IC50 ([2]; Homo sapiens, secreted PSA): 19.3 µM
92.5%	2 µM	NC(=S)N/N=C1\Cc2cccc3cccc1c23 [Compound 14005]	–	–
41.6%	–	c1ccc(-c2csc(-c3c[nH]c4ccccc34)n2)cc1 [Compound 14361]	–	IC50 ([1]; eGFP IC50 (μM), Series 1): 10.1 µM
–	–	Fc1ccccc1-c1csc(N2CCOCC2)n1 [Compound 14286]	85.86%	–
–	–	Fc1ccc(-c2csc(N3CCNCC3)n2)cc1 [Compound 14340]	16.12%	–

inhibition at 3 µM [1]	IC50 [1, 3]	SMILES	% Inhibition (3 μM) [1]	other results
–	41.6 µM	COc1cc(C)c2occ(/C(C)=N/O)c2c1 [Compound 14017]	–	–
–	–	CC1CN(c2nc(-c3ccc(Cl)cc3)cs2)C(C)CO1 (centres unmarked) [Compound 14248]	4.73%	–
27.1%	–	Oc1ccccc1-c1ccc2cccnc2n1 [Compound 14336]	–	–
–	–	Cc1sc(N2CCOCC2)nc1-c1ccc(F)cc1 [Compound 14341]	43.7%	–
–	–	COc1ccccc1-c1nc(N2CCOCC2)sc1C [Compound 14363]	29.03%	–
–	–	COc1ccc(-c2csc(-c3c[nH]c4ccccc34)n2)cc1 [Compound 14443]	25.15%	–
–	–	CSc1ccc(-c2csc(N3CCOCC3)n2)cc1 [Compound 14297]	109.99%	–
–	–	c1ccc(-c2csc(N3CCSCC3)n2)cc1 [Compound 14385]	–	IC50 ([1]; eGFP IC50 (μM), Series 1): 0.6 µM
–	–	Nc1ccc(-c2csc(N3CCOCC3)n2)cc1 [Compound 14256]	28.14%	–
–	–	COc1ccc(-c2csc(N3CCOCC3)n2)c(OC)c1 [Compound 14268]	37.55%	–
54.4%	5.51 µM	Nc1nc(-c2ccc3c(c2)CCCC3)cs1 [Compound 14198]	–	–
–	–	c1ccn(-c2csc(N3CCOCC3)n2)c1 [Compound 14411]	44.00%	–
–	–	Cc1ccc(-c2nc(N3CCOCC3)sc2C)cc1 [Compound 14284]	30.22%	–
–	–	c1ccc(-c2csc(N3CCCC3)n2)cc1 [Compound 14351]	38.4%	–
–	10 µM	Cc1ccccc1CN1C(=O)NC2C=CC=CC21 (centres unmarked) [Compound 14065]	–	–
18.6%	–	c1cc2c(cc1-c1csc(N3CCOCC3)n1)CCCC2 [Compound 14291]	–	anti-AR activity (AR transcriptional inhibition) in words ([1]; LNCaP (T877A AR)): lost their anti-AR activity; eGFP IC50 ([1]; LNCaP eGFP cells, 0.1 nM R1881): Low activity
